The values below come from patent US9187544B2, “Peptide modulators of angiogenesis and use thereof” (The Johns Hopkins University, priority 2007, dated 2015).

For this assay, the system named is NCI H82 lung carcinoma cell line tumor xenografts. The experiment in a line: In vivo tumor xenograft model. The following applies: female nude mice, 12 days, monotherapy. As for the experimental part:
To characterize the functional effects of anti-angiogenic peptides in mouse models, tumor xenografts were generated in female nude mice using the NCI H82 lung carcinoma cell line. This cell line was chosen because its aggressiveness results in rapid tumor growth. Three peptides, a collagen derived, a CXC chemokine derived and a TSP1 containing protein derived peptide were administered once a day, intraperitoneally (i.p.), at doses 10 and 20 mg/kg/day, in a 200 microliter solution injection as individual agents and as a combination. The CXC protein GRO-α/CXCL1 derived peptide (human sequence: […] (SEQ ID NO: 2445); mouse sequence: […] (SEQ ID NO: 2441)), the TSP1 repeat-containing protein WISP-1 derived peptide (human sequence: GPWEPCSVTCSKGTRTRRR (SEQ ID NO: 2444); mouse sequence: GPWGPCSVTCSKGTQIRQR (SEQ ID NO: 2440)), and the type IV collagen alpha5 fibril derived peptide (human sequence: […] (SEQ ID NO: 2442) is the same as mouse sequence: […] (SEQ ID NO: 2443)). An equivalent volume of PBS was injected as control. The injections were repeated for 12 days.
A population of 10^6 cells were washed twice in PBS and gently resuspended to generate a single cell suspension. The cells were mixed with Matrigel (BD Biosciences) in a final 60% cell solution. Subsequently, the cells were injected into the flank area of immunosuppressed nude mice in a total volume of 100 μl. Following growth incubation of 5 to 6 days, the tumor size volume was calculated by measurements of tumor dimensions with calipers. Tumor growth was monitored to an initial average size of 100 mm^3, which developed within 6 days after inoculation. Peptides were administered once a day, intraperitoneally (i.p.), in doses of 10 mg/kg and 20 mg/kg. In the case of testing a combination each peptide was injected in a two day cycle of a different peptide per day. Equivalent volume of PBS solution was injected as control. The injections were continued for up to […]. A total of six animals per group were used for the experiments per peptide per concentration.

In the case of GPWEPCSVTCSKGTRTRRR, the “development of tumors (tumor volume)” value (10 mg/kg/day i.p. once a day) is “suppressed the development of tumors” and the “development of tumors (tumor volume)” value (20 mg/kg/day i.p. once a day) is on record as “suppressed the development of tumors”.

Regarding LRRFSTMPFMFCNINNVCNF, the “development of tumors (tumor volume)” value by setting is: (10 mg/kg/day i.p. once a day) “suppressed the development of tumors”; (20 mg/kg/day i.p. once a day) “suppressed the development of tumors”.

On to “NGRKACLNPASPIVKKIIEKMLNS [CXC protein GRO-α/CXCL1 derived peptide]”, for which the “development of tumors (tumor volume)” value runs as follows: (10 mg/kg/day i.p. once a day) “suppressed the development of tumors”; (20 mg/kg/day i.p. once a day) “suppressed the development of tumors”.
